Patent US20260049331A1, “Sense-and-Response of Proteins, Peptides, and Small Molecules Using Ligand-Induced Dimerization Activating RNA Editing (LIDAR)” (The Board of Trustees of the Leland Stanford Junior …, priority 2022, published 2026)

Assays:
[1] = test system: CCR6-based LIDAR outputting iCASP9 (cLSM01-C5 cells); assay: LIDAR-induced cell apoptosis with iCASP9 output in stable cell line cLSM01-C5; format: cell-based; settings: only when both CCL20 and AP1903 are present; flow cytometry and microscopy; FIG. 9F
Procedure: In terms of generalizing functional outputs, LIDAR was used to output iCASP9 as a ligand-dependent cell death controller (13) (FIG. 9E), as iCASP9 induces apoptosis in response to the dimerizing molecule AP1903. A monoclonal cell line was generated (cLSM01-C5) expressing all three components of CCR6-based LIDAR by stable PiggyBac integrations. […] Another functional output was then tested, tobacco etch virus (TEV) protease, given our expertise (14) and its broad use (15) in synthetic circuits. A LIDAR-produced TEV protease rescues a fluorescent protein linked via a TEV protease cleavage site to a degron (FIG. 9G). Its dose response curve resembles that of the corresponding LIDAR that directly outputs EGFP (FIG. 9H and FIG. 13F). […] This indicates the potential for LIDAR to be implemented in more complex circuits (16).

[2] = test system: AVPR-LIDAR and CX3CR1-LIDAR; assay: orthogonal ChaCha-like LIDAR receptors (AVPR-LIDAR and CX3CR1-LIDAR) in the same cell; format: cell-based, human; settings: MCP/MS2 reporter outputs EGFP, PCP/PP7 reporter outputs mTagBFP; FIG. 10K
Procedure: To maintain a fast design-build-test cycle, unless specified, all prototyping experiments were performed by transiently co-transfecting receptor-encoding DNA plasmids into human embryonic kidney (HEK) 293 cells.
To program more complex multi-cellular behaviors, as well as to integrate multiple inputs for targeted cell therapies, it is often required to have receptors that process orthogonal signals in the same cell. In our most commonly used configuration (Tango-like LIDAR), the β-arrestin2-RBP fusion protein is recruited to all GPCRs without discrimination. This means that with two different GPCR-LIDAR receptors (e.g., AVPR-based LIDAR and CX3CR1-based LIDAR) the system would only be able to produce one output, triggered by either ligand. In the inverted version, the ADAR2dd and the RBP are interchanged to obtain the GPCR-RBP and β-arrestin2-ADAR2dd fusion proteins, analogous to TANGO vs. ChaCha receptors (25) (FIG. 10J). Because a separate RBP is needed for each receptor. MCP was used for a reporter RNA harboring MS2 loops and outputting EGFP and PP7 bacteriophage coat protein (PCP) for a reporter RNA harboring PP7 loops and outputting mTagBFP.

CCR6-based LIDAR = molecular target: T1, CCR6-based LIDAR (Homo sapiens, UniProt P51684); assay: CCR6-based LIDAR sensing of secreted or membrane-bound CCL20 from sender cells; format: cell-based; settings: conditioned media from CCL20-secreting cells or co-culture with cells displaying CCL20; FIG. 10A-D
T1 construct: ADAR2dd (deaminase domain of ADAR2); expressed in transfected cells; host or cells: HEK293 (receiver cells)
Source text: Inspired by examples from synNotch (19, 20) and given the advantage that LIDAR could potentially sense both membrane-bound and soluble ligands. LIDAR was used to drive cell-cell interactions to ultimately program complex multicellular behaviors (21-23). CCR6-based LIDAR senses its ligand, CCL20 (FIG. 10A-D), when the receiver cells are either exposed to conditioned media from CCL20-secreting cells (FIG. 10A, B) or co-cultured with cells displaying CCL20 on their surface (FIG. 10C, D). […] Receiver cells surrounding cells that produce secreted ligands were plated (FIG. 10E), a response gradient was observed going from the sender cells outwards (FIG. 10F). In contrast, when the receiver cells with sender cells producing a membrane-bound ligand were tested, the response pattern is limited to the sender-receiver interface (FIG. 10G, H). The images were quantified to extract the LIDAR output intensity profiles in response to membrane-bound and secreted ligands.

[3] = molecular target: GPCR fused to MCP (inverted GPCR LIDAR design; GPCRs not named); assay: cell-based or functional assay

T1 sequence (P51684 whole entry, the tested form may be a part): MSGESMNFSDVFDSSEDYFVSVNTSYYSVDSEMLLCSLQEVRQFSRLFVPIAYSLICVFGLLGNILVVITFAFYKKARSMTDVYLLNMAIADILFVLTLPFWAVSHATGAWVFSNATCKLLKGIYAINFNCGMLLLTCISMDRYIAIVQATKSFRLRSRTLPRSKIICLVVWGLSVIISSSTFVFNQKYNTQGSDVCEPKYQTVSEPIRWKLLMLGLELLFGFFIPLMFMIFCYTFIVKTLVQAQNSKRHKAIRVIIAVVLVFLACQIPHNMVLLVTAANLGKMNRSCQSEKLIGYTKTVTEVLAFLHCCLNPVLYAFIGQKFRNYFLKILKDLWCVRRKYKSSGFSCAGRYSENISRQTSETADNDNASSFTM
T1 sequence (P32121 whole entry partner, the tested form may be a part): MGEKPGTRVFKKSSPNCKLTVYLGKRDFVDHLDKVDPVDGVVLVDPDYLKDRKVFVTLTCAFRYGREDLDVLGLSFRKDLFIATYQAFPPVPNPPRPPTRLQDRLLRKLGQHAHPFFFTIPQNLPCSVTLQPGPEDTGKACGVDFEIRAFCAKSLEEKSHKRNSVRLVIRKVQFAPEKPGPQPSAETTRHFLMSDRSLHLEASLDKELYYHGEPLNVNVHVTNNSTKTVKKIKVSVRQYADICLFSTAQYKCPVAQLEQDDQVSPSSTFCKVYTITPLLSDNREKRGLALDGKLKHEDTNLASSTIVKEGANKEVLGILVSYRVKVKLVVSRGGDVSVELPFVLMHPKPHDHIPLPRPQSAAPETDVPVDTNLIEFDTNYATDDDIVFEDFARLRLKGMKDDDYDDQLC

CC[C@H](C(=O)N1CCCC[C@H]1C(=O)O[C@H](CCc1ccc(OC)c(OC)c1)c1cccc(OCC(=O)NCCNC(=O)COc2cccc([C@@H](CCc3ccc(OC)c(OC)c3)OC(=O)[C@@H]3CCCCN3C(=O)[C@@H](CC)c3cc(OC)c(OC)c(OC)c3)c2)c1)c1cc(OC)c(OC)c(OC)c1 [AP1903, reference compound]
cell death [1]: Substantial cell death

NC(=O)CC[C@@H]1NC(=O)[C@H](Cc2ccccc2)NC(=O)[C@H](Cc2ccc(O)cc2)NC(=O)[C@@H](N)CSSC[C@@H](C(=O)N2CCC[C@H]2C(=O)N[C@@H](CCCN=C(N)N)C(=O)NCC(N)=O)NC(=O)[C@H](CC(N)=O)NC1=O [AVP, Arginine vasopressin, reference compound]
output produced by each ligand in the same cell [2]: EGFP exclusively

CCL20: chemokine, GPCR ligand of CCR6
ligand sensing by receiver cells (CCR6-based LIDAR): senses | cell death [1]: Substantial cell death

β-arrestin2-ADAR2dd (inverted / ChaCha-like LIDAR) (from UniProt P32121 1-409; P78563 299-701)
fold activation of inverted GPCR LIDAR [3]: < 17 ×

B1: CX3CL1: ligand of CX3CR1-LIDAR (protein)
chain: QHHGVTKCNITCSKMTSKIPVALLIHYQQNQASCGKRAIILETRQHRLFCADPKEQWVKDAMQHLDRQAAALTRNG
output produced by each ligand in the same cell [2]: mTagBFP exclusively
